Results as given in US12557811B2, “Effective and eco-friendly disinfectant” (The Hong Kong University of Science and Technology, priority 2022, dated 2026).
Read-outs that look alike come from different tables or passages of the source.

Legend:
[1] = Degradation kinetics with solar irradiation
[2] = Degradation kinetics without solar irradiation (darkness); type: physicochemical
[3] = Storage stability in solid form or in an organic solvent; type: physicochemical
C. albicans = test: Disinfection experiments, membrane filter enumeration, C. albicans; type: cell-based, Candida albicans; conditions: for inactivation rate constant / Dose for achieving 3-log (99.9%) inactivation: C. albicans
Description: (§1) The disinfection experiments were performed in PBS solutions (10 mM, pH 7.2) with an initial concentration of E. coli, S. aureus, or C. albicans of 10^6-10^7 CFU mL^−1. Different concentrations of 2,6-DCQ or PCMX were added to the cell suspensions at room temperature (˜22° C.) After the given contact time (i.e., 5 min), the microorganism cells were enumerated following a membrane filter method. Briefly, serial ten-fold dilutions were conducted for the disinfected samples and the control sample without disinfection. Each diluted suspension was filtered through a 0.45-μm filter paper, which was then placed on a petri dish. The petri dishes containing E. coli, S. aureus, and C. albicans were incubated in m-FC medium at 45° C. for 24 h, Tryptone Soya broth at 37° C. for 24 h, and Sabouraud Dextrose broth at 37° C. for 24 h, respectively. After incubation, the colony forming units within a statistically reasonable range (20-80) were counted. The disinfection experiments were performed in duplicate. All the materials for the disinfection experiments were autoclaved at 121° C. for 15 min and cooled to room temperature before use.

P. dumerilii embryos = test: P. dumerilii embryo developmental toxicity; type: in vivo, Platynereis dumerilii
Excerpt: The doses of 2,6-DCQ and PCMX for 3-log E. coli inactivation (pH 7.2) were set as the in-use concentrations, which were serially diluted and added to the embryos of a marine polychactc, Platynereis dumerilii, at 12-hour postfertilization. A dilution factor was defined as the ratio of the in-use concentration to the exposure concentration. Each exposure set contained a control sample (i.e., the embryos at 12-hour postfertilization developed in seawater). By 24-hour postfertilization, normally developed embryos should have reached the first larval stage. An inverted stereomicroscope (40× magnification) was used to observe the larvae. The normal development percentage was calculated as the ratio of normally developed embryos to total embryos. By plotting the curve of the normal development percentage versus the dilution factor, the EC50,DF value (i.e., the dilution factor corresponding to 50% of the normal development percentage of the control sample) was obtained using SigmaPlot 12. The developmental toxicity test was conducted in duplicate.

E. coli = test: Disinfection experiments, membrane filter enumeration, E. coli; type: cell-based, Escherichia coli
Description: Disinfection experiments were performed in phosphate buffer saline (PBS; 10 mM, pH 7.2) with an initial concentration of E. coli of 10^6-10^7 colony forming units per milliliter (CFU mL^−1). Different concentrations of disinfection byproducts were added to the cell suspensions individually at room temperature (˜22° C.) with a contact time of 5 min. After the given contact time, the microorganism cells were enumerated following a membrane filter method. Briefly, serial ten-fold dilutions were conducted for the disinfected samples and the control sample without disinfection. Each diluted suspension was subjected to filtration through 0.45-μm membrane, which was then placed on a petri dish containing m-FC medium. After incubation at 45° C. for 24 hours, the colony forming units within a statistically reasonable range (20-80) were counted. The disinfection experiments were performed in duplicate. All the materials for the disinfection experiments were autoclaved at 121° C. for 15 min and cooled to room temperature before use.
as §1
The disinfection experiments were performed in PBS solutions (10 mM, pH 7.2) with an initial concentration of E. coli of 10^6-10^7 CFU mL^−1. 2,5-Dichloro-1,4-benzoquinone (7.5 and 15 mg L^−1) or 2,6-DCQ (7.5 and 15 mg L^−1) was added to the cell suspensions at room temperature (˜22° C.). After the given contact time (i.e., 5 min), the microorganism cells were enumerated following a membrane filter method. Briefly, serial ten-fold dilutions were conducted for the disinfected samples and the control sample without disinfection. Each diluted suspension was subjected to filtration through 0.45-μm membrane, which was then placed on a petri dish. The petri dishes containing E. coli were incubated in m-FC medium at 45° C. for 24 hours. After incubation, the colony forming units within a statistically reasonable range (20-80) were counted. The disinfection experiments were performed in duplicate. All the materials for the disinfection experiments were autoclaved at 121° C. for 15 min and cooled to room temperature before use.
The disinfection experiments were performed in PBS solutions (10 mM, pH 7.2) with an initial concentration of E. coli of 10^6-10^7 CFU mL^−1. 2,6-DBQ (2,6-dibromo-1,4-benzoquinone), 2,6-DIQ (2,6-diiodo-1,4-benzoquinone), or 2,6-DCQ was added to the cell suspensions at room temperature (˜22° C.) with a contact time of 5 min. After the given contact time, the microorganism cells were enumerated following a membrane filter method. Briefly, serial ten-fold dilutions were conducted for the disinfected samples and the control sample without disinfection. Each diluted suspension was subjected to filtration through 0.45-μm membrane, which was then placed on a petri dish. The petri dishes containing E. coli were incubated in m-FC medium at 45° C. for 24 hours.

[4] = system: E. coli, S. aureus and C. albicans; test: Disinfection experiments, comparison across the three types of pathogens; type: cell-based, Escherichia coli, Staphylococcus aureus, Candida albicans
Description: as §1

S. aureus = test: Disinfection experiments, membrane filter enumeration, S. aureus; type: cell-based, Staphylococcus aureus; conditions: for inactivation rate constant / Dose for achieving 3-log (99.9%) inactivation: S. aureus
Description: as §1

zebrafish embryos = conditions: in vivo; cited from earlier work
[5] = system: antibiotic resistance genes; conditions: environmentally relevant concentrations; cited from earlier work
rainbow trout = conditions: environmentally relevant concentrations (˜4.2 μg L^−1); cited from earlier work
[6] = pH not given, read-out: Half-life, without solar irradiation (converted)

With `Oc1ccc(Br)cc1Br` [2,4-Dibromophenol, 2,4-dibromophenol] the half-life [1] was 35 h and the “k, degradation, with solar irradiation” value ([1]; pH not given) was 0.0201 h⁻¹.
With `Oc1cc(I)c(O)cc1I` [2,5-Diiodohydroquinone, 2,5-diiodohydroquinone] the half-life [1] was 0.15 h, the “k, degradation, with solar irradiation” value ([1]; pH not given) was 0.756 h⁻¹ and the “k, degradation, without solar irradiation” value ([2]; pH not given) was 0.078 h⁻¹. For the same molecule, the half-life [2, 6] was 0.15 h.
For `O=C1C=C(Cl)C(=O)C(Cl)=C1` [2,6-DCQ, 2,6-dichloro-1,4-benzoquinone], the time remaining stable [3] was “at least 24 months”, the inactivation rate constant (C. albicans) was 31200 µL/min/mg and the “Dose for achieving 3-log (99.9%) inactivation” value (C. albicans; pH 7.2, contact time 5 min) was 35.7 mg/L. For the same molecule, the inactivation rate constant (C. albicans; pH 7.2, contact time 5 min) was 31200 µL/min/mg, the inactivation (C. albicans; Candida albicans ATCC 14053, contact time of 5 minutes) was 99.9% and the “developmental toxicity, times lower than PCMX” value (P. dumerilii embryos; 48 hours after discharge into seawater) was 31 times. The “developmental toxicity compared with PCMX” value (P. dumerilii embryos; after 2 hours of degradation in seawater) was “lower developmental toxicity”, the “Half-life, with solar irradiation” value ([1]; pH 6.2) was 4.13 h and the “k, degradation, with solar irradiation” value ([1]; pH 6.2) was 0.17 h⁻¹. The “half-life under solar irradiation” value ([1]; pH 7.2) was 3.20 h, the “k, degradation, with solar irradiation” value ([1]; pH 7.2) was 0.22 h⁻¹ and the “Half-life, with solar irradiation” value ([1]; pH 8.2) was 1.33 h. For the same molecule, the “k, degradation, with solar irradiation” value ([1]; pH 8.2) was 0.52 h⁻¹, the “half-lives, times shorter than those of PCMX” value ([1]; seawater (pH 8.2), with and without solar irradiation) was “about 200 times” and the half-life ([2]; buffer, pH 6.2, read-out: half-life in darkness (converted)) was 65.5 h. For the same molecule, the half-life ([2]; buffer, pH 7.2, read-out: half-life in darkness (converted)) was 15.1 h, the “Half-life, without solar irradiation” value ([2]; pH 6.2) was 65.5 h and the “k, degradation, without solar irradiation” value ([2]; pH 6.2) was 0.010 h⁻¹. The “Half-life, without solar irradiation” value ([2]; pH 7.2) was 15.1 h, the “k, degradation, without solar irradiation” value ([2]; pH 7.2) was 0.046 h⁻¹ and the “Half-life, without solar irradiation” value ([2]; pH 8.2) was 1.74 h. The “k, degradation, without solar irradiation” value ([2]; pH 8.2) was 0.397 h⁻¹, the inactivation (E. coli) was 99.9% and the inactivation rate constant (E. coli) was 91700 µL/min/mg. For the same molecule, the “dose required for 99.9% inactivation, times lower than those of the other nine disinfection byproducts” value (E. coli; E. coli, contact time of 5 minutes) was 8.8-500 times, the “inactivation rate constant, times greater than those of other disinfection byproducts” value (E. coli; E. coli, versus the other nine disinfection byproducts) was 8.8-500 times and the “Dose for achieving 3-log (99.9%) inactivation” value (E. coli; pH 7.2) was 12.8 mg/L. The inactivation rate constant (E. coli; pH 7.2) was 91700 µL/min/mg, the “disinfection efficacy, times higher than PCMX” value [4] was 10-15 times and the “reduction of disinfectant doses for 99.9% inactivation by switching from PCMX to 2,6-DCQ” value ([4]; E. coli, S. aureus and C. albicans) was 89-93%. The “in-use doses for 99.9% inactivation, times lower than the corresponding doses of PCMX” value ([4]; E. coli, S. aureus and C. albicans, contact time 5 min) was 10-15 times, the inactivation rate constant (S. aureus) was 20000 µL/min/mg and the “Dose for achieving 3-log (99.9%) inactivation” value (S. aureus; pH 7.2, contact time 5 min) was 29.4 mg/L. It also gave an inactivation rate constant (S. aureus; pH 7.2, contact time 5 min) of 20000 µL/min/mg and an inactivation (S. aureus; Staphylococcus aureus ATCC 25923, contact time of 5 minutes) of 99.9%.
With `O=C1C=C(Cl)C(=O)C=C1Cl` [2,5-DCQ, 2,5-dichloro-1,4-benzoquinone] the “disinfection efficacy compared with 2,6-DCQ” value (E. coli; pH 7.2) was “comparable disinfection efficacy”.
In the case of `Oc1cc(Cl)c(O)cc1Cl` [2,5-Dichlorohydroquinone, 2,5-dichlorohydroquinone], the half-life [1] is reported as 0.11 h, the “k, degradation, with solar irradiation” value ([1]; pH not given) is reported as 0.101 h⁻¹ and the “k, degradation, without solar irradiation” value ([2]; pH not given) is reported as 0.0922 h⁻¹. It also gave a half-life [2, 6] of 0.13 h.
For “para-chloro-meta-xylenol [PCMX, reference compound]”, the inactivation rate constant (C. albicans) was 3500 µL/min/mg, the “Dose for achieving 3-log (99.9%) inactivation” value (C. albicans; pH 7.2, contact time 5 min) was 325 mg/L and the inactivation rate constant (C. albicans; pH 7.2, contact time 5 min) was 3500 µL/min/mg. For the same molecule, the “adverse effects in zebrafish embryos” value (zebrafish embryos) was “mortality, morphological malformations, and neurotoxicity”, the “Half-life, with solar irradiation” value ([1]; pH 8.2) was 257 h and the “k, degradation, with solar irradiation” value ([1]; pH 8.2) was 0.0027 h⁻¹. For the same molecule, the “half-life under solar irradiation” value ([1]; pH 8.2, seawater pH) was 257 h, the “Half-life, without solar irradiation” value ([2]; pH 8.2) was 5578 h and the “k, degradation, without solar irradiation” value ([2]; pH 8.2) was 0.00012 h⁻¹. For the same molecule, the “Half-life, without solar irradiation” value ([2]; seawater pH (pH 8.2)) was roughly 5760 h, the inactivation rate constant (E. coli; E. coli) was 11000 µL/min/mg and the inactivation rate constant (E. coli; E. coli, pH 7.2, contact time 5 min) was 11000 µL/min/mg. The “Dose for achieving 3-log (99.9%) inactivation” value (E. coli; pH 7.2) was 188 mg/L, the “effect on antibiotic resistance genes” value [5] was “promote the spread of antibiotic resistance genes” and the “in-use doses for 99.9% inactivation, times higher than those of 2,6-DCQ” value ([4]; three types of pathogens, contact time 5 min) was 10-15 times. For the same molecule, the inactivation rate constant (S. aureus) was 3500 µL/min/mg, the “Dose for achieving 3-log (99.9%) inactivation” value (S. aureus; pH 7.2, contact time 5 min) was 312 mg/L and the inactivation rate constant (S. aureus; pH 7.2, contact time 5 min) was 3500 µL/min/mg. For the same molecule, the “effects of chronic exposure in rainbow trout” value (rainbow trout) was “gene regulation and morphological changes”.
In the case of `Oc1ccc(I)cc1I` [2,4-Diiodophenol, 2,4-diiodophenol], the “Half-life, with solar irradiation” value ([1]; pH not given) is reported as 83 h and the “k, degradation, with solar irradiation” value ([1]; pH not given) is reported as 0.0083 h⁻¹.
For `Oc1ccc(Cl)cc1Cl` [2,4-Dichlorophenol, 2,4-dichlorophenol], the “k, degradation, with solar irradiation” value ([1]; pH not given) was 0.0157 h⁻¹ and the half-life (physchem) was 44 h.
For `O=C1C=C(Br)C(=O)C(Br)=C1` [2,6-DBQ, 2,6-dibromo-1,4-benzoquinone], the “disinfection efficacy compared with 2,6-DCQ” value (E. coli; pH 7.2) was “comparable disinfection efficacy”.
With `O=C1C=C(I)C(=O)C(I)=C1` [2,6-DIQ, 2,6-diiodo-1,4-benzoquinone] the “disinfection efficacy compared with 2,6-DCQ” value (E. coli; pH 7.2) was “comparable disinfection efficacy”.
For `Oc1cc(Br)c(O)cc1Br` [2,5-Dibromohydroquinone, 2,5-dibromohydroquinone], the half-life [1] was 0.15 h, the “k, degradation, with solar irradiation” value ([1]; pH not given) was 0.787 h⁻¹ and the “k, degradation, without solar irradiation” value ([2]; pH not given) was 0.0767 h⁻¹. It also gave a half-life [2, 6] of 0.15 h.
